Target: recombinant full-length human hydroxyacid oxidase 1 (HAO1), the equivalents of hGOX (Homo sapiens (Human), UniProt Q9UJM8)
Experiment: In-vitro human glycolate oxidase (hGOX) assay (Amplex red fluorescence)
Format: biochemical
Details: 6 nM recombinant human GO, 85 μM glycolate, 10 min preincubation
Method: The in-vitro glycolate oxidase assay was performed using recombinant full-length human hydroxyacid oxidase 1 (HAO1), the equivalents of hGOX. […] Purified HAO1 was dissolved in assay buffer consisting of 10 mM NaCl, 110 mM KCl, 2 mM MgCl2, 50 mM HEPES (pH 7.4), and 0.01% Triton™ X-100.
The plates were incubated for 10 min at room temperature, at which point Amplex red reagent (50 μM) was added.
The fluorescence intensity signal was measured on a VariosKan LUX instrument using an excitation of 560 nm and an emission of 590 nm. The IC50 values were calculated using Graphpad Prism. The fluorescence signal of wells containing only DMSO was defined as 100% GO activity, while the fluorescence signal without the glycolate substrate was defined as 0% GO activity.

Chain of recombinant full-length human hydroxyacid oxidase 1 (HAO1), the equivalents of hGOX (Q9UJM8 whole entry): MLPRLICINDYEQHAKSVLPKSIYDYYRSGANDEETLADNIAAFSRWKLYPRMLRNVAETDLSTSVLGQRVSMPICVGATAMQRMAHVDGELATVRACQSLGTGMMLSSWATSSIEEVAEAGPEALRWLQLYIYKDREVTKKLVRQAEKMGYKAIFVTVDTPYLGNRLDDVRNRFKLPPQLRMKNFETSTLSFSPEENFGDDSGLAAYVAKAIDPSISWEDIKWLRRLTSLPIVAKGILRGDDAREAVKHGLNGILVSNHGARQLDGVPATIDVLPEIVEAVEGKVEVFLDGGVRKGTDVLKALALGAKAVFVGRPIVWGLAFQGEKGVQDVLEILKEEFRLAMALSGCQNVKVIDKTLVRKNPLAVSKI

Row | Structure (SMILES) | IC50
1 | COc1cc(C#Cc2ccc(Oc3[nH]nnc3C(=O)O)cc2)ccn1 [Example 283, 5-(4-(2-(2-Methoxypyridin-4-yl)ethynyl)phenoxy)-1H-1,2,3-triazole-4-carboxylic Acid] | 3 nM
2 | O=C(O)c1nn[nH]c1Oc1ccc(C#Cc2ccccc2)cc1F [Example 260, 5-(2-Fluoro-4-(2-phenylethynyl)phenoxy)-1H-1,2,3-triazole-4-carboxylic Acid] | 5 nM
3 | COc1cccc(C#Cc2ccc(Oc3[nH]nnc3C(=O)O)cc2)c1 [Example 281, 5-(4-(2-(3-Methoxyphenyl)ethynyl)phenoxy)-1H-1,2,3-triazole-4-carboxylic Acid] | 3 nM
4 | N#Cc1ccc(C#Cc2cc(F)cc(Oc3[nH]nnc3C(=O)O)c2)cc1 [Example 276, 4-(3-((4-Cyanophenyl)ethynyl)-5-fluorophenoxy)-1H-1,2,3-triazole-5-carboxylic Acid] | 3 nM
5 | N#Cc1ccc(C#Cc2ccc(Oc3[nH]nnc3C(=O)O)cc2F)cc1 [Example 269, 5-(4-((4-Cyanophenyl)ethynyl)-3-fluorophenoxy)-1H-1,2,3-triazole-4-carboxylic Acid] | 1 nM
6 | CS(=O)(=O)c1cccc(C#Cc2cccc(Oc3[nH]nnc3C(=O)O)c2)c1 [Example 191, 5-(3-(2-(3-(Methylsulfonyl)phenyl)ethynyl)phenoxy)-1H-1,2,3-triazole-4-carboxylic Acid] | 6 nM
7 | Cn1cc(C#Cc2cccc(Oc3[nH]nnc3C(=O)O)c2)ccc1=O [Example 209, 4-(3-((1-Methyl-6-oxo-1,6-dihydropyridin-3-yl)ethynyl)phenoxy)-1H-1,2,3-triazole-5-carboxylic Acid] | 8 nM
8 | O=C(O)c1nn[nH]c1Oc1ccc(C(F)(F)F)c(C#Cc2ccccc2)c1 [Example 263, 5-(4-(Trifluoromethyl)-3-(2-phenylethynyl)phenoxy)-1H-1,2,3-triazole-4-carboxylic Acid] | 2 nM
9 | CS(=O)(=O)c1ccc(C#Cc2ccc(Oc3[nH]nnc3C(=O)O)cc2F)cc1 [Example 272, 5-(3-Fluoro-4-(2-(4-(methylsulfonyl)phenyl)ethynyl)phenoxy)-1H-1,2,3-triazole-4-carboxylic Acid] | 2 nM
10 | O=C(O)c1nn[nH]c1Oc1cc(C#Cc2ccccc2)ccc1F [Example 261, 5-(2-Fluoro-5-(2-phenylethynyl)phenoxy)-1H-1,2,3-triazole-4-carboxylic Acid] | 4 nM
11 | O=C(O)c1nn[nH]c1Oc1ccc(Cl)c(C#Cc2ccccc2)c1 [Example 147, 5-(4-Chloro-3-(2-phenylethynyl)phenoxy)-1H-1,2,3-triazole-4-carboxylic Acid] | 4 nM
12 | N#Cc1cccc(C#Cc2ccc(Oc3[nH]nnc3C(=O)O)cc2F)c1 [Example 270, 5-(4-((3-Cyanophenyl)ethynyl)-3-fluorophenoxy)-1H-1,2,3-triazole-4-carboxylic Acid] | 1 nM
13 | O=C(O)c1nn[nH]c1Oc1cccc(C#Cc2cccc(Cl)c2)c1 [Example 187, 5-(3-(2-(3-Chlorophenyl)ethynyl)phenoxy)-1H-1,2,3-triazole-4-carboxylic Acid] | 1 nM
14 | Cc1ccc(Oc2[nH]nnc2C(=O)O)cc1C#Cc1ccccc1 [Example 262, 5-(4-Methyl-3-(2-phenylethynyl)phenoxy)-1H-1,2,3-triazole-4-carboxylic Acid] | 1 nM
15 | O=C(O)c1nn[nH]c1Oc1ccc(C#Cc2cn[nH]c2)cc1 [Example 178, 5-(4-(2-(1H-Pyrazol-4-yl)ethynyl)phenoxy)-1H-1,2,3-triazole-4-carboxylic Acid] | 6 nM
16 | Cn1cc(C#Cc2ccc(Oc3[nH]nnc3C(=O)O)cc2)cn1 [Example 220, 5-(4-(2-(1-Methyl-1H-pyrazol-4-yl)ethynyl)phenoxy)-1H-1,2,3-triazole-4-carboxylic Acid] | 4 nM
17 | O=C(O)c1nn[nH]c1Oc1ccc(C#Cc2ccc(F)cc2)cc1 [Example 288, 5-(4-(2-(4-Fluorophenyl)ethynyl)phenoxy)-1H-1,2,3-triazole-4-carboxylic Acid] | 1 nM
18 | Cn1cc(C#Cc2ccc(Oc3[nH]nnc3C(=O)O)cc2)ccc1=O [Example 208, 4-(4-((1-Methyl-6-oxo-1,6-dihydropyridin-3-yl)ethynyl)phenoxy)-1H-1,2,3-triazole-5-carboxylic Acid] | 2 nM
19 | O=C(O)c1ccc(C#Cc2cc(F)cc(Oc3[nH]nnc3C(=O)O)c2)cc1 [Example 265, 5-(3-Fluoro-5-(2-(4-carboxyphenyl)ethynyl)phenoxy)-1H-1,2,3-triazole-4-carboxylic Acid] | 3 nM

The remaining lines, values ahead:

Row | IC50 | Structure (SMILES)
20 | 0.3 nM | O=C(O)c1nn[nH]c1Oc1ccc(C#Cc2cccc(Cl)c2)cc1 [Example 291, 5-(4-(2-(3-Chlorophenyl)ethynyl)phenoxy)-1H-1,2,3-triazole-4-carboxylic Acid]
21 | > 1000 nM | Cc1[nH]nc(Oc2ccc(C#CCC3CC3)cc2)c1C(=O)O [Example 361, 3-(4-(3-Cyclopropylprop-1-ynyl)phenoxy)-5-methyl-1H-pyrazole-4-carboxylic Acid]
22 | 10 nM | Cn1ccnc1C#Cc1ccc(Oc2[nH]nnc2C(=O)O)cc1 [Example 333, 5-(4-(2-(1-Methyl-1H-imidazol-2-yl)ethynyl)phenoxy)-1H-1,2,3-triazole-4-carboxylic Acid]
23 | 3 nM | Cn1ncc2c(C#Cc3ccc(Oc4[nH]nnc4C(=O)O)cc3)cccc21 [Example 314, 5-(4-(2-(1-Methyl-1H-indazol-4-yl)ethynyl)phenoxy)-1H-1,2,3-triazole-4-carboxylic Acid]
24 | 2 nM | Cn1ncc2cccc(C#Cc3cccc(Oc4[nH]nnc4C(=O)O)c3)c21 [Example 326, 5-(3-(2-(1-Methyl-1H-indazol-7-yl)ethynyl)phenoxy)-1H-1,2,3-triazole-4-carboxylic Acid]
25 | 2 nM | Cn1ncc2ccc(C#Cc3ccc(Oc4[nH]nnc4C(=O)O)cc3)cc21 [Example 318, 5-(4-(2-(1-Methyl-1H-indazol-6-yl)ethynyl)phenoxy)-1H-1,2,3-triazole-4-carboxylic Acid]
26 | 230 nM | O=C(O)c1nn[nH]c1Nc1ccc(C#CCC2CC2)cc1 [Example 362, 5-(4-(3-Cyclopropylprop-1-ynyl)phenylamino)-1H-1,2,3-triazole-4-carboxylic Acid]
27 | > 1000 nM | CC(C)(C)CC#Cc1cccc(Oc2[nH]nnc2C(=O)O)c1 [Example 372, 5-(3-(4,4-Dimethylpent-1-ynyl)phenoxy)-1H-1,2,3-triazole-4-carboxylic Acid]
28 | > 1000 nM | CCOC(=O)c1nn[nH]c1Oc1cccc(C#CCC(C)C)c1 [Example 366, Ethyl 5-(3-(4-methylpent-1-ynyl)phenoxy)-1H-1,2,3-triazole-4-carboxylate]
29 | 6 nM | O=C(O)c1nn[nH]c1Oc1cccc(C#Cc2cn[nH]c2)c1 [Example 320, 5-(3-(2-(1H-Pyrazol-4-yl)ethynyl)phenoxy)-1H-1,2,3-triazole-4-carboxylic Acid]
30 | 3 nM | O=C(O)c1nn[nH]c1Oc1cccc(C#Cc2cccnn2)c1 [Example 340, 5-(3-(2-(Pyridazin-3-yl)ethynyl)phenoxy)-1H-1,2,3-triazole-4-carboxylic Acid]
31 | > 1000 nM | Cc1[nH]nc(Oc2cccc(C#CCC3CC3)c2)c1C(=O)O [Example 359, 3-(3-(3-Cyclopropylprop-1-ynyl)phenoxy)-5-methyl-1H-pyrazole-4-carboxylic Acid]
32 | 2 nM | O=C(O)c1nn[nH]c1Oc1ccc(C#Cc2cccc3[nH]ncc23)cc1 [Example 327, 5-(4-(2-(1H-Indazol-4-yl)ethynyl)phenoxy)-1H-1,2,3-triazole-4-carboxylic Acid]
33 | 5 nM | Cn1ccnc1C#Cc1cccc(Oc2[nH]nnc2C(=O)O)c1 [Example 334, 5-(3-(2-(1-Methyl-1H-imidazol-2-yl)ethynyl)phenoxy)-1H-1,2,3-triazole-4-carboxylic Acid]
34 | 3 nM | O=C(O)c1nn[nH]c1Oc1ccc(C#Cc2cccnc2)cc1 [Example 309, 5-(4-(2-(Pyridin-3-yl)ethynyl)phenoxy)-1H-1,2,3-triazole-4-carboxylic Acid]
35 | 3 nM | O=C(O)c1nn[nH]c1Oc1ccc(C#CCc2ccc(F)cc2)cc1 [Example 353, 5-(4-(3-(4-fluorophenyl)prop-1-ynyl)phenoxy)-1H-1,2,3-triazole-4-carboxylic Acid]
36 | > 1000 nM | CCOC(=O)c1nn[nH]c1Oc1cccc(C#CCC(C)(C)F)c1 [Example 377, Ethyl 5-(3-(4-fluoro-4-methylpent-1-ynyl)phenoxy)-1H-1,2,3-triazole-4-carboxylate]
37 | 20 nM | O=C(O)c1nn[nH]c1Oc1cccc(C#CC2CCC3(CC2)OCCO3)c1 [Example 351, 5-(3-(1,4-Dioxaspiro[4.5]decan-8-ylethynyl)phenoxy)-1H-1,2,3-triazole-4-carboxylic Acid]
38 | 2 nM | Cn1ncc2cccc(C#Cc3ccc(Oc4[nH]nnc4C(=O)O)cc3)c21 [Example 325, 5-(4-(2-(1-Methyl-1H-indazol-7-yl)ethynyl)phenoxy)-1H-1,2,3-triazole-4-carboxylic Acid]
39 | 3 nM | O=C(O)c1nn[nH]c1Oc1cccc(C#Cc2ccncc2)c1 [Example 313, 5-(3-(2-(Pyridin-4-yl)ethynyl)phenoxy)-1H-1,2,3-triazole-4-carboxylic Acid]
40 | 2 nM | O=C(O)c1nn[nH]c1Oc1cccc(C#Cc2ccc(Cl)cc2)c1 [Example 292, 5-(3-(2-(4-Chlorophenyl)ethynyl)phenoxy)-1H-1,2,3-triazole-4-carboxylic Acid]
41 | 2 nM | O=C(O)c1nn[nH]c1Oc1ccc(C#Cc2ccc3cn[nH]c3c2)cc1 [Example 329, 5-(4-(2-(1H-Indazol-6-yl)ethynyl)phenoxy)-1H-1,2,3-triazole-4-carboxylic Acid]

Source: US11504367B2, “Compounds and methods for treating oxalate-related diseases” (OxaluRx, Inc., priority 2019, dated 2022)
